From patent publication US10905704B2, “Agents and methods using thereof for the prevention and treatment of stem cell muscle disorders” (ECOLE POLYTECHNIQUE FEDERALE DE LAUSANNE (EPFL), priority 2015, dated 2021) come the findings set out here.

The subject of one experiment is C2C12 myoblasts. The experiment in a line: Western blot of senescence and apoptosis markers in C2C12 myoblasts. The format is cell-based, mouse. The settings on record: late passage C2C12 myoblasts, 6-hour NR treatment. How it is done:
Cell culture and treatments. FACS sorted MuSCs were grown on a 10% Matrigel (Corning)-coated dish and flasks with Fams F-10 media (Gibco), supplemented with 20% fetal bovine serum (FBS, Gibco), 2.5 ng/ml basic fibroblast growth factor (bFGF, Sigma) and penicillin/streptomycin (1×, Gibco). Dishes were coated with 10% growth factor-free Matrigel solution on ice for 7 min then transferred to a 37° C. cell culture incubator overnight before use. Cells were grown for three generations in vitro before experiments with cells plated and passaged at 10^3 cells/ml and 50% confluencies, respectively. C2C12 mouse myoblasts were grown in DMEM (4.5 g/1 glucose, Gibco) supplemented with 10% FBS and penicillin/streptomycin (1×, Gibco). Western blotting. C2C12 cells were lysed in a buffer composed of 50 mM Tris, 150 mM KCl, EDTA 1 mM, NP40 1%, nicotinamide 5 mM, sodium butyrate 1 mM and protease inhibitors cocktail (Roche) at pH 7,4. Proteins were separated by SDS-PAGE and transferred onto nitrocellulose membranes. Blocking and antibody incubations were performed in 3% BSA. The following primary antibodies were used: anti-cleavage caspase 3 (Cell Signalling); Anti-γH2AX (Millipore); anti-β-actin (Sigma). All secondary antibodies were from Jackson Immunoresearch. […]

The subject of a further experiment is primary MuSCs. The experiment in a line: Respirometry on MuSCs. The format is cell-based, C57BL/6J mice. Particulars: primary MuSCs isolated from NR-treated aged mice. How it is done: Respirometry on MuSCs. Basal and uncoupled oxygen consumption rates (OCRs) were measured using the Seahorse extracellular flux bioanalyzer (XF96, Seahorse Bioscience Inc.). To uncouple mitochondria, 5 uM of FCCP was injected after a basal respiration measurement. All measurements were performed in triplicates and results were normalized to total cell number seeded (primary MuSCs) assessed using a Bradford kit (Bio-Rad).

For another experiment, the system named is MuSCs. The experiment in a line: MuSC numbers in NR-treated Mdx mice (FACS, PAX7 immunostaining). The format is in vivo. How it is done: Animals. Young (1 month old) and aged (20-24 months old) C57BL/6JRj mice, purchased from Janvier Labs, and five weeks old male C57BL/10SnJ mice or C57BL/10ScSn-Dmdmdx/J, purchased from The Jackson Laboratory, were fed with pellets containing vehicle or NR (400 mg/kg/day) for 6-8 weeks. The pellets were prepared by mixing powdered chow diet (D12450B, Research Diets Inc.) with water or with NR dissolved in water. Pellets were dried under a laminar flow hood for 48 hours. All mice were housed in micro-isolator cages in a room illuminated from 7:00 am -7:00 pm with ad libitum access to diet and water.
FACS based muscle stem cell isolation. Gastrocnemius, soleus, quadriceps, and tibialis anterior muscles from both limbs were excised and transferred into PBS on ice. All muscles were trimmed, minced and digested with 0.1 mg/ml of type II collagenase (Sigma) in PBS for 15 min at 37° C. Samples were then centrifuged at 750 g for 5 min and further digested in 1 mg/ml of collagenase/dispase (Roche) for 30 mins at 37° C. Muscle slurries were sequentially filtered through 100, 70 and 40 μm cell strainers. […] Stained cells were analysed and sorted using the FACSAria II instrument (BD Biosciences). […]

Consider `NC(=O)c1ccc[n+]([C@@H]2O[C@H](CO)[C@@H](O)[C@H]2O)c1` [NR, nicotinamide riboside], for which the “expression of cell senescence and apoptosis markers (γH2AX, cleaved caspase3)” value in the experiment with C2C12 myoblasts is “reduced the expression of cell senescence and apoptosis markers”. For the same compound, the oxidative respiration entry in the experiment on primary MuSCs was “trend in oxidative respiration was replicated”. For the same compound, the “increase of MuSC numbers in vivo” value with MuSCs (Mdx mice, NR 400 mg/kg/day in diet, FACS, FIG. 6B-D) is recorded as approximately 1.8 fold. In the experiment with MuSCs (NR-treated Mdx mice, FIG. 6E), the “MuSC numbers by PAX7 immunostaining” value is listed as “confirmed by PAX7 immunostaining”.
